Experimental data taken from the supplement of paper PMC10331698.
± gives the standard deviation of the averaged measurements.

Legend:
Experiment in all cases: level (log10 ratio to DMSO vehicle control); higher = higher biomarker level / cell amount than vehicle control
[1] = compound: CN(C(=O)C(F)(F)C(F)(F)C(F)(F)F)[Si](C)(C)C [N-Methyl-N-trimethylsilylheptafluorobutyramide] (in DMSO)
Method: (§1)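 BioMAP Diversity Plus panel of 12 human primary cell co-culture systems (3C, 4H, LPS, SAg, BT, BF4T, BE3C, CASM3C, HDF3CGF, KF3CT, MyoF, Mphg). Compounds were added 1 h before stimulation and left for 24 h (MyoF 48 h; BT 72 h for soluble read-outs or 6 d for IgG). Biomarkers were read by ELISA, cytotoxicity by SRB, PBMC viability and proliferation by Alamar Blue. Each well value was divided by the mean of 8 DMSO control wells on the same plate and log10 transformed; duplicate blinded samples were tested at 4 concentrations.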

[2] = compound: C[C@@H]1C[C@H]2[C@@H]3CCC4=CC(=O)C=C[C@]4(C)[C@@]3(F)[C@@H](O)C[C@]2(C)[C@@]1(O)C(=O)COP(=O)(O)O [Dexamethasone sodium phosphate] (in DMSO)
Method: as §1

[3] = compound: O=C(O)C(F)(F)C(F)(F)C(F)(F)OC(F)(F)F [Perfluoro(4-methoxybutanoic) acid] (in DMSO)
Method: as §1

[4] = compound: O=C(O)C(F)(OC(F)(F)C(F)(OC(F)(F)C(F)(OC(F)(F)C(F)(F)C(F)(F)F)C(F)(F)F)C(F)(F)F)C(F)(F)F [Perfluoro-(2,5,8-trimethyl-3,6,9-trioxadodecanoic)acid] (in DMSO)
Method: as §1

[5] = compound: O=C(O)CCC(F)(C(F)(F)F)C(F)(F)F [4,4-bis(Trifluoromethyl)-4-fluoropropanoic acid] (in DMSO)
Method: as §1

[6] = compound: OCC(F)(F)C(F)(F)C(F)(F)C(F)(F)C(F)(F)C(F)(F)CO [1H,1H,8H,8H-Perfluorooctane-1,8-diol] (in DMSO)
Method: as §1

Test System | level (log10) ([1]; 6700 nM) | level (log10) ([1]; 20000 nM) | level (log10) ([1]; 60000 nM) | level (log10) ([2]; 1500 nM) | level (log10) ([2]; 4400 nM) | level (log10) ([2]; 13000 nM) | level (log10) ([2]; 40000 nM) | level (log10) ([3]; 6700 nM) | level (log10) ([3]; 20000 nM) | level (log10) ([3]; 60000 nM) | level (log10) ([4]; 1100 nM) | level (log10) ([4]; 3300 nM) | level (log10) ([4]; 10000 nM) | level (log10) ([5]; 6700 nM) | level (log10) ([5]; 20000 nM) | level (log10) ([5]; 60000 nM) | level (log10) ([6]; 6700 nM) | level (log10) ([6]; 20000 nM) | level (log10) ([6]; 60000 nM)
MyoF:MMP-1 | -0.007 ± 0.0028 | -0.0055 ± 0.005 | -0.017 ± 0.018 | 0.004 ± 0.031 | 0.005 ± 0.0014 | -0.0315 ± 0.013 | -0.0125 ± 0.005 | -0.0165 ± 0.0078 | -0.0245 ± 0.026 | 0.0205 ± 0.06 | -0.048 ± 0.0014 | -0.0475 ± 0.012 | -0.03 ± 0.027 | 0.0125 ± 0.013 | -0.0265 ± 0.00071 | 0 ± 0.011 | -0.02 ± 0.031 | -0.0145 ± 0.022 | 0.028 ± 0.12
MyoF:PAI-I | -0.009 ± 0.021 | 0.0095 ± 0.015 | 0.0105 ± 0.0092 | 0.0185 ± 0.0078 | 0.0085 ± 0.015 | 0.005 ± 0.0028 | 0.0085 ± 0.012 | -0.003 ± 0.0042 | -0.0045 ± 0.0064 | 0.0005 ± 0.00071 | 0.005 ± 0.021 | 0.006 ± 0.0085 | 0.0085 ± 0.016 | -0.005 ± 0.0057 | -0.007 ± 0.0042 | -0.006 ± 0.0099 | -0.0015 ± 0.0064 | -0.004 ± 0.0028 | 0.0005 ± 0.011
MyoF:SRB | 0.0035 ± 0.012 | 0.0035 ± 0.0035 | 0.0055 ± 0.0035 | -0.01 ± 0.0099 | -0.0105 ± 0.0035 | -0.0135 ± 0.0092 | -0.0105 ± 0.00071 | -0.0075 ± 0.0035 | -0.008 ± 0.0028 | -0.0005 ± 0.00071 | -0.0065 ± 0.005 | 0.008 ± 0.018 | 0.0085 ± 0.015 | -0.004 ± 0.0028 | -0.003 ± 0.0014 | 0.0025 ± 0.0021 | -0.0095 ± 0.012 | -0.0145 ± 0.0064 | -0.0305 ± 0.0021
